{"source": "patent US6903132B2", "about": "“Non-peptide GnRH agents, pharmaceutical compositions and methods for their use” (Agouron Pharmaceuticals, Inc., priority 2002, dated 2005)", "key": {"[1]": {"assay": "In vitro metabolism: disappearance of parent compound in liver microsomes", "type": "in vitro ADME", "details": "human liver microsomes; 5 uM compound, 0.5 mg/ml microsomal protein, 2 mM NADPH, 30 minutes at 37° C.", "procedure": "(§1) Human, rat, dog, and monkey liver microsomes are isolated by differential centrifugation. Specimens of human liver were obtained from the International Institute for the Advancement of Medicine (Scranton, Pa.). The disappearance of the parent compound is studied in a mixture containing 5 uM compound, 0.5 mg/ml microsomal protein, and 2 mM NADPH in 50 mM K Phosphate buffer, pH 7.4. Samples are incubated for 30 minutes at 37° C. The reaction is terminated by the addition of acetonitrile and compounds analyzed by LC-MS as described above."}, "[2]": {"assay": "In vitro metabolism: disappearance of parent compound in liver microsomes (female rat)", "type": "in vitro ADME", "details": "5 uM compound, 0.5 mg/ml microsomal protein, 2 mM NADPH, 30 minutes at 37° C.", "procedure": "as §1"}}, "note": "Values joined by “and” are separate entries in the source; they are usually repeats but may differ in a detail not shown here. Identical values can stand only once."}
{"compound": "Cc1cc2c(cc1Cc1ccc(C(=O)NNc3cc(C)c4c(C)nn(C)c4n3)o1)C(C)(C)CCC2(C)C", "note": "[Example C1, 5-[(3,5,5,8,8-Pentamethyl-5,6,7,8-tetrahydro-2-naphthalenyl)methyl]-N′-(1,3,4-trimethyl-1H-pyrazolo[3,4-b]pyridin-6yl)-2-furohydrazide]", "values": [{"measurement": "Huma % p. 30′", "setting": "[1]", "value": "63% and 54% and 37% and 38%"}]}
{"compound": "COc1cc2c(cc1Cc1ccc(C(=O)NNc3cc(C)c4c(C)nn(C)c4n3)o1)C(C)(C)CCC2(C)C", "note": "[Example C2, 5-[(3-Methoxy-5,5,8,8-tetramethyl-5,6,7,8-tetrahydro-2-naphthalenyl)methyl]-N′-(1,3,4-trimethyl-1H-pyrazolo[3,4-b]pyridin-6-yl)-2-furohydrazide]", "values": [{"measurement": "Huma % p. 30′", "setting": "[1]", "value": 40, "unit": "%"}, {"measurement": "Fem. t % rem. 30′", "setting": "[2]", "value": 18, "unit": "%"}]}
